# According to patent publication US8916517B2, “Analogs of pituitary adenylate cyclase-activating polypeptide (PACAP) and methods for their use” (The Administrators of the Tulane Educational Fund, priority 2009, dated 2014):
# Entries after “also recorded” stand apart in the source; their conditions may differ. Non-standard residues stand in square brackets, D forms with d. No end group written: not given here. Pip = O=C(O)[C@@H]1CCCCN1; Aib = CC(C)(N)C(=O)O
# Legend:
# [1] = tested on: light-chain immunoglobulin-secreting human multiple myeloma cells; test: Inhibition of proliferation of light-chain immunoglobulin-secreting human multiple myeloma cells (bromodeoxyuridine incorporation); type: cell-based; settings: inhibition of myeloma cell proliferation
# Protocol: FIG. 3 is a table listing the EC50 for the inhibitory effects of PACAP38, PACAP27, VIP, and eight novel PACAP analogs on the proliferation of light-chain immunoglobulin-secreting myeloma cells. The light-chain immunoglobulin-secreting human multiple myeloma cells were cultured in RPMI 1640 medium supplemented with 10% non-inactivated fetal bovine serum and 0.05 mM 2-mercaptoethanol. The effects of PACAP38, PACAP27, VIP, and the eight novel PACAP analogs on myeloma cell proliferation were assessed by determining incorporation of bromodeoxyuridine into DNA during cell division. The number of myeloma cells approximately doubled during the 24-hour incubation period in the absence of treatment with PACAP-like peptides. Five different concentrations, ranging from 10^-13 M to 10^-5 M, were tested for PACAP38, PACAP27, VIP, and each of the eight novel PACAP analogs. The EC50 was calculated from the concentration response curve using the software package Prism (Graph Pad, San Diego, CA). Each value represents the mean of four-six determinations per experiment. The EC50 for PACAP38 is based on the average of four separate experiments, while the EC50 for PACAP27 and [Pip^3,Aib ^16,28,Ala^17,Lys^34,D-LysIPACAP 38 (SEQ ID NO: 4) is based on the average of two separate experiments.
# FIG. 4 is a graph showing a representative concentration response curve from a single experiment on the inhibitory effects PACAP38 and six PACAP38 analogs on the proliferation of light-chain immunoglobulin-secreting human myeloma cells. Each value represents the mean plus/minus the standard error of four-six determinations. Note that replacing pipecolic acid in position 3 of the novel analogs with either nipecotic acid or isonipecotic acid results in an analog with more than four orders of magnitude lower inhibitory potency.
# The effects of PACAP38, PACAP27, VIP, and PACAP analogs on myeloma cell proliferation were assessed by determining incorporation bromodeoxyuridine into DNA during cell division. […]
# [2] = tested on: rat renal proximal tubule epithelial cells; test: Reduction of cisplatin-induced apoptotic cell death of renal proximal tubule epithelial cells (histone-associated DNA fragmentation); type: cell-based; settings: cisplatin 24 hours, comparable concentrations
# [3] = tested on: ischemia/reperfusion injury to the kidney; test: Serum creatinine after renal ischemia/reperfusion injury in mice; type: in vivo, male C57BL/6 mice; settings: 20 micrograms i.p. 1, 24 and 48 h after start of reperfusion; 45 min renal artery clamping; 72 hours
# Protocol: FIG. 6 is a graph showing the effects of PACAP38 and two novel PACAP analogs on serum creatinine levels in mice following ischemia/reperfusion injury to the kidney. The renal artery in male C57BL/6 mice was clamped bilaterally for 45 minutes in all mice except for the sham-operated mice. Twenty micrograms of PACAP38 or one of the PACAP analogs were given intraperitoneally 1 hour after the start of reperfusion and additional doses were given at 24 and 48 hours after the initial dose. The sham-operated group of mice was injected intraperitoneally with PACAP38 on the same schedule as the mice subjected to ischemia/reperfusion. The control group of mice was injected intraperitoneally with the same volume of saline as for the injections of PACAP38 on the same schedule. All of the mice were euthanized 24 hours after the final injection of saline, PACAP38 or one of the novel PACAP analogs. Each value represents the mean plus/minus the standard error of four determinations. **p<0.01 and *p<0.05 compared to the ischemia/reperfusion group treated with saline. I/R, ischemia/reperfusion; sham, sham-operated.
# [4] = tested on: human myeloma cell line (MM.1 R); test: Proliferation of dexamethasone-resistant myeloma cell line MM.1R (bromodeoxyuridine incorporation); type: cell-based; settings: FIG. 9
# Protocol: FIG. 9 is a graph showing the effects PACAP38, [Pip^3,Ala^14,17,Aib^16,28,Lys^34,D-Lys^38] PACAP38(SEQ ID NO: 6) and dexamethasone on the proliferation of light-chain immunoglobulin-secreting human myeloma cell line (MM.1 R) that was derived from a patient who was being treated for multiple myeloma with a dexamethasome-containing regimen. The light-chain immunoglobulin-secreting multiple myeloma cells were cultured in RPMI 1640 medium supplemented with 10% non-inactivated fetal bovine serum and 0.05mM 2-mercaptoethanol. The effects of dexamethasone, PACAP38 and the novel PACAP38 analog on cell proliferation were assessed by determining the incorporation of bromodeoxyuridine into DNA during cell division. Each value represents the mean plus/minus the standard error of four-six determination. The cell lines in FIGS. 8 and 9 were obtained from the same patient at different stages of the treatment (Greenstein et al., Exp Hematol 31 :271-282, 2003).
# [5] = tested on: human renal proximal tubule epithelial cells; test: Reduction of gentamicin-induced apoptotic cell death of human renal proximal tubule epithelial cells; type: cell-based; settings: gentamicin 24 hours
# Protocol: The inhibitory effects of PACAP38 and the novel PACAP analog on apoptotic cell death was assessed by the quantitative determination of cytoplasmic histone-associated DNA-fragmentation (mono- and oligonucleosomes) after exposure to gentamicin for 24 hours. […] Each value represents the mean plus/minus the standard deviation of four determinations. **p<0.01 and *p<0.05 compared to the group treated only with gentamicin.
Substance,cytoprotective potency compared with PACAP38 [2],reversal of the rise in serum creatinine caused by ischemia/reperfusion [3],also measured
PACAP27,–,–,potency compared with PACAP38 or the novel PACAP38 analogs [1]: significantly less potent
"[Pip^3,Aib^16,28,Ala^17,Lys^34,D-Lys^38]PACAP38 (HS[Pip]GIFTDSYSRYRK[Aib]AAVKKYLAAVL[Aib]KRYKQKVKN[dK]-NH2; N-terminus assumed; SMILES CC[C@H](C)[C@H](NC(=O)CNC(=O)[C@@H]1CCCCN1C(=O)[C@H](CO)NC(=O)[C@@H](N)Cc1c[nH]cn1)C(=O)N[C@@H](Cc1ccccc1)C(=O)N[C@H](C(=O)N[C@@H](CC(=O)O)C(=O)N[C@@H](CO)C(=O)N[C@@H](Cc1ccc(O)cc1)C(=O)N[C@@H](CO)C(=O)N[C@@H](CCCNC(=N)N)C(=O)N[C@@H](Cc1ccc(O)cc1)C(=O)N[C@@H](CCCNC(=N)N)C(=O)N[C@@H](CCCCN)C(=O)NC(C)(C)C(=O)N[C@@H](C)C(=O)N[C@@H](C)C(=O)N[C@H](C(=O)N[C@@H](CCCCN)C(=O)N[C@@H](CCCCN)C(=O)N[C@@H](Cc1ccc(O)cc1)C(=O)N[C@@H](CC(C)C)C(=O)N[C@@H](C)C(=O)N[C@@H](C)C(=O)N[C@H](C(=O)N[C@@H](CC(C)C)C(=O)NC(C)(C)C(=O)N[C@@H](CCCCN)C(=O)N[C@@H](CCCNC(=N)N)C(=O)N[C@@H](Cc1ccc(O)cc1)C(=O)N[C@@H](CCCCN)C(=O)N[C@@H](CCC(N)=O)C(=O)N[C@@H](CCCCN)C(=O)N[C@H](C(=O)N[C@@H](CCCCN)C(=O)N[C@@H](CC(N)=O)C(=O)N[C@H](CCCCN)C(N)=O)C(C)C)C(C)C)C(C)C)[C@@H](C)O) [SEQ ID NO:4]",either as effective or more effective than PACAP38,–,–
"[Pip^3,Ala^14,17,Aib^16,28,Lys^34,D-Lys^38]PACAP38 (HS[Pip]GIFTDSYSRYAK[Aib]AAVKKYLAAVL[Aib]KRYKQKVKN[dK]-NH2; N-terminus assumed; SMILES CC[C@H](C)[C@H](NC(=O)CNC(=O)[C@@H]1CCCCN1C(=O)[C@H](CO)NC(=O)[C@@H](N)Cc1c[nH]cn1)C(=O)N[C@@H](Cc1ccccc1)C(=O)N[C@H](C(=O)N[C@@H](CC(=O)O)C(=O)N[C@@H](CO)C(=O)N[C@@H](Cc1ccc(O)cc1)C(=O)N[C@@H](CO)C(=O)N[C@@H](CCCNC(=N)N)C(=O)N[C@@H](Cc1ccc(O)cc1)C(=O)N[C@@H](C)C(=O)N[C@@H](CCCCN)C(=O)NC(C)(C)C(=O)N[C@@H](C)C(=O)N[C@@H](C)C(=O)N[C@H](C(=O)N[C@@H](CCCCN)C(=O)N[C@@H](CCCCN)C(=O)N[C@@H](Cc1ccc(O)cc1)C(=O)N[C@@H](CC(C)C)C(=O)N[C@@H](C)C(=O)N[C@@H](C)C(=O)N[C@H](C(=O)N[C@@H](CC(C)C)C(=O)NC(C)(C)C(=O)N[C@@H](CCCCN)C(=O)N[C@@H](CCCNC(=N)N)C(=O)N[C@@H](Cc1ccc(O)cc1)C(=O)N[C@@H](CCCCN)C(=O)N[C@@H](CCC(N)=O)C(=O)N[C@@H](CCCCN)C(=O)N[C@H](C(=O)N[C@@H](CCCCN)C(=O)N[C@@H](CC(N)=O)C(=O)N[C@H](CCCCN)C(N)=O)C(C)C)C(C)C)C(C)C)[C@@H](C)O) [SEQ ID NO:6]",either as effective or more effective than PACAP38,almost completely reversed,sensitivity of cell proliferation [4]: still sensitive
"[Pip^3,Ala^15,17,Aib^16,28,Lys^34,D-Lys^38]PACAP38 (HS[Pip]GIFTDSYSRYRA[Aib]AAVKKYLAAVL[Aib]KRYKQKVKN[dK]-NH2; N-terminus assumed; SMILES CC[C@H](C)[C@H](NC(=O)CNC(=O)[C@@H]1CCCCN1C(=O)[C@H](CO)NC(=O)[C@@H](N)Cc1c[nH]cn1)C(=O)N[C@@H](Cc1ccccc1)C(=O)N[C@H](C(=O)N[C@@H](CC(=O)O)C(=O)N[C@@H](CO)C(=O)N[C@@H](Cc1ccc(O)cc1)C(=O)N[C@@H](CO)C(=O)N[C@@H](CCCNC(=N)N)C(=O)N[C@@H](Cc1ccc(O)cc1)C(=O)N[C@@H](CCCNC(=N)N)C(=O)N[C@@H](C)C(=O)NC(C)(C)C(=O)N[C@@H](C)C(=O)N[C@@H](C)C(=O)N[C@H](C(=O)N[C@@H](CCCCN)C(=O)N[C@@H](CCCCN)C(=O)N[C@@H](Cc1ccc(O)cc1)C(=O)N[C@@H](CC(C)C)C(=O)N[C@@H](C)C(=O)N[C@@H](C)C(=O)N[C@H](C(=O)N[C@@H](CC(C)C)C(=O)NC(C)(C)C(=O)N[C@@H](CCCCN)C(=O)N[C@@H](CCCNC(=N)N)C(=O)N[C@@H](Cc1ccc(O)cc1)C(=O)N[C@@H](CCCCN)C(=O)N[C@@H](CCC(N)=O)C(=O)N[C@@H](CCCCN)C(=O)N[C@H](C(=O)N[C@@H](CCCCN)C(=O)N[C@@H](CC(N)=O)C(=O)N[C@H](CCCCN)C(N)=O)C(C)C)C(C)C)C(C)C)[C@@H](C)O) [SEQ ID NO:5]",either as effective or more effective than PACAP38,almost completely reversed,–
[Pip^3]PACAP38 (HS[Pip]GIFTDSYSRYRKQMAVKKYLAAVLGKRYKQRVKNK-NH2; N-terminus assumed; SMILES CC[C@H](C)[C@H](NC(=O)CNC(=O)[C@@H]1CCCCN1C(=O)[C@H](CO)NC(=O)[C@@H](N)Cc1c[nH]cn1)C(=O)N[C@@H](Cc1ccccc1)C(=O)N[C@H](C(=O)N[C@@H](CC(=O)O)C(=O)N[C@@H](CO)C(=O)N[C@@H](Cc1ccc(O)cc1)C(=O)N[C@@H](CO)C(=O)N[C@@H](CCCNC(=N)N)C(=O)N[C@@H](Cc1ccc(O)cc1)C(=O)N[C@@H](CCCNC(=N)N)C(=O)N[C@@H](CCCCN)C(=O)N[C@@H](CCC(N)=O)C(=O)N[C@@H](CCSC)C(=O)N[C@@H](C)C(=O)N[C@H](C(=O)N[C@@H](CCCCN)C(=O)N[C@@H](CCCCN)C(=O)N[C@@H](Cc1ccc(O)cc1)C(=O)N[C@@H](CC(C)C)C(=O)N[C@@H](C)C(=O)N[C@@H](C)C(=O)N[C@H](C(=O)N[C@@H](CC(C)C)C(=O)NCC(=O)N[C@@H](CCCCN)C(=O)N[C@@H](CCCNC(=N)N)C(=O)N[C@@H](Cc1ccc(O)cc1)C(=O)N[C@@H](CCCCN)C(=O)N[C@@H](CCC(N)=O)C(=O)N[C@@H](CCCNC(=N)N)C(=O)N[C@H](C(=O)N[C@@H](CCCCN)C(=O)N[C@@H](CC(N)=O)C(=O)N[C@@H](CCCCN)C(N)=O)C(C)C)C(C)C)C(C)C)[C@@H](C)O) [SEQ ID NO:12],–,–,"cytoprotective potency, PACAP38 versus [Pip^3]PACAP38 [5]: less potent than PACAP38; reduction in gentamicin-induced apoptotic cell death ([5]; various concentrations): significant dose-dependent reduction; also recorded: dose-dependent inhibition"
